Measurements taken from US20100173900A1, “Strobilurins for Increasing the Resistance of Plants to Abiotic Stress” (BASF SE, priority 2008, published 2010).

Assays:
cotton plants = experiment: Cotton behavior under freeze conditions (dead plants); type: in vivo; conditions: 4 h at −5° C. in BBCH growth stage 10, counted three days after freeze exposure
Method: Cotton seeds were treated either with pyraclostrobin (20 g of active substance per 100 kg seed) or with azoxystrobin (19 g of active substance per 100 kg seed). The treatment was effected by means of a HEGE 11 seed treatment apparatus. After the treatment, the seeds were sown into pots. When the cotton plants were in the BBCH growth stage 10, they were exposed for 4 h to −5° C. Three days after the freeze exposure, the number of dead plants was counted. The results are compiled as mean percentage values (relative to 100% of living plants before exposure to freezing temperatures) in table 8 below.

corn plants [1] = experiment: Corn behavior under freeze conditions (dead plants); type: in vivo; conditions: seed treatment 5 g a.s./100 kg seed, 3 h at −5 ° C. ten or eleven days after sowing, counted one day after freeze exposure
Method: Exposure times and temperatures were selected to show sufficient damage to the plants so that treatment differences could be observed.
Corn seeds were treated with pyraclostrobin (5 g of active substance per 100 kg seed) or with azoxystrobin (5 g of active substance per 100 kg seed). The treatment was effected by means of a HEGE 11 seed treatment apparatus. One day after the treatment, the seeds were sown into pots with sandy loam soil. One part of the corn plants was exposed for 3 h to −5 ° C. ten days after sowing, and the other plants eleven days after sowing. In each case, the number of dead plants was counted one day after the freeze exposure. The results are compiled as mean percentage values (relative to 100% of living plants before exposure to freezing temperatures) in table 3 below.

spring wheat plants = experiment: Spring wheat behavior under freeze conditions (dead plants); type: in vivo; conditions: seed treatment 5 g a.s./100 kg seed, 2 h at −10° C. in BBCH growth stage 11, counted three days after freeze exposure
Method: (§1) Spring wheat seeds were treated with pyraclostrobin (5 g of active substance per 100 kg seed). The treatment was effected by means of a HEGE 11 seed treatment apparatus. After the treatment, the seeds were sown into pots. When the spring wheat plants were in the BBCH growth stage 11, they were exposed for 2 h to −10° C. Three days after the freeze exposure, the number of dead plants was counted. The results are compiled as mean percentage values (relative to 100% of living plants before exposure to freezing temperatures) in table 7 below.

sugar beet plants [2] = experiment: Sugar beet behavior under freeze conditions (dead plants); type: in vivo; conditions: seed treatment 30 g a.s./100 kg seed
Method: Sugar beet seeds were treated with pyraclostrobin (30 g of active substance per 100 kg seed). The treatment was effected by means of a HEGE 11 seed treatment apparatus. After the treatment, the seeds were sown into pots with a sandy loam soil/sand mixture (2:1 v/v; 2 seeds per pot). One part of the sugar beet plants was exposed for 3 h to −5° C. when they were in the BBCH growth stage 10, and the other plants when they were in the BBCH growth stage 11. In each case, the number of dead plants was counted three days after the freeze exposure. The results are compiled as mean percentage values (relative to 100% of living plants before exposure to freezing temperatures) in table 5 below.

soybean plants = experiment: Soybean behavior under freeze conditions (dead plants); type: in vivo; conditions: seed treatment 5 g a.s./100 kg seed, 3.5 h at −7° C. in BBCH growth stage 9, counted three days after freeze exposure
Method: as §1, with “Soybean” for “Spring wheat”, “soybean” for “spring wheat”, “9,” for “11,”, “3.5” for “2”, “−7°” for “−10°”, “6” for “7”

corn plants [3] = experiment: Emergence behavior of corn after seed treatment, cold and variable temperatures; type: in vivo; conditions: seed treatment 5 g a.s./100 kg seed, 7 days at 10° C., 4 days at 24° C., then 10° C.
Method: (§2) The emergence behavior of corn plants the seeds of which had been treated with pyraclostrobin and which were exposed after sowing to cold and variable temperatures was studied following the guidelines for germination testing according to the Association of Official Seed Analysts (AOSA, 2005). For this purpose, corn seeds were treated with pyraclostrobin (5 g active substance per 100 kg seed). The treatment was effected by means of a HEGE 11 seed treatment apparatus. After the treatment, the seeds were sown into sand trays (2×100 seeds per tray). The sand trays were placed in an incubator and submitted to following temperature regimen: 7 days at 10° C.-4 days at 24° C.-then 10 ° C. 9, 10 and 29 days after sowing (=DAP=days after planting), the number of seeds which had given rise to plants was counted. The results are compiled as mean values in table 1. A value of 100% means that all sown seeds have given rise to plants.

corn plants [4] = experiment: Corn field trial under frost conditions, Beaver Crossing; type: in vivo; conditions: 5 g a.s./100 kg seed in addition to Maxim XL and Apron XL
Method: For avoiding fungal stress which could give misleading test results especially under cold temperature, all corn seeds were treated with Maxim XL (fludioxonil; 3.5 g of active substance per 100 kg seed) and Apron XL (mefenoxam; 1 g of active substance per 100 kg seed). A part of the seeds was additionally treated with pyraclostrobin (5 g of active substance per 100 kg seed). The treatment was effected by means of a HEGE 11 seed treatment apparatus. The seeds were sown every 5 days starting from Sep. 6, 2007 in 1.75″ deep on clean tilled soil in Beaver Crossing, NE, USA. Frost occurred on Oct. 22/23, 2007 (−0.1° C. for 1 h), Oct. 23/24 (−0.1° C. for 1 h), 2007 and Oct. 24/25, 2007 (0° C. for 1 h, −1.1° C. for 1.5 h and 0° C. for 1 h). 47 days after sowing (=DAP; days after planting), the number emerged plants and their height was assessed. 50 DAP, the extent of dead tissue was assessed. The results are compiled as mean values in table 11 below.

corn plants [5] = experiment: Plant height (stem length) and root length of corn, cold and variable temperatures; type: in vivo; conditions: seed treatment 5 g a.s./100 kg seed, cold/variable temperature regimen of example 1, 23 days after sowing
Method: as §2
23 days after sowing (see example 1) the stem length (=length from the soil line to the meristem) and the root length of the plants was measured. The results are compiled as mean values in table 2 below.

corn plants [6] = experiment: Corn field trial, Burrus Seed Farms; type: in vivo; conditions: 5 g a.s./100 kg seed in addition to Maxim XL and Apron XL, 35 DAP
Method: For avoiding fungal stress which could give misleading test results especially under cold temperature, all corn seeds were treated with Maxim XL (fludioxonil; 3.5 g of active substance per 100 kg seed) and Apron XL (mefenoxam; 1 g of active substance per 100 kg seed). A part of the seeds was additionally treated with pyraclostrobin (5 g of active substance per 100 kg seed). The treatment was effected by means of a HEGE 11 seed treatment apparatus. On Sep. 26, 2007, the seeds were sown in Burrus Seed Farms, Illinois, USA. 35 days after sowing (=DAP; days after planting), the number of intact, injured and dead plants was assessed. The results are compiled as mean percentage values (relative to total number of plants=100%) in table 10 below.

canola plants = experiment: Canola behavior under freeze conditions (dead plants); type: in vivo, canola (oilseed rape); conditions: seed treatment 10 g a.s./100 kg seed, 1 h at −10° C. in BBCH growth stage 10, counted three days after freeze exposure
Method: Canola (oilseed rape) seeds were treated either with pyraclostrobin (10 g of active substance per 100 kg seed) or with trifloxystrobin (10 g of active substance per 100 kg seed). The treatment was effected by means of a HEGE 11 seed treatment apparatus. After the treatment, the seeds were sown into pots. When the canola plants were in the BBCH growth stage 10, they were exposed for 1 h to −10° C. Three days after the freeze exposure, the number of dead plants was counted. The results are compiled as mean percentage values (relative to 100% of living plants before exposure to freezing temperatures) in table 9 below.

sugar beet plants [7] = experiment: Emergence behavior of sugar beet at cold temperature; type: in vivo; conditions: seed treatment 30 g a.s./100 kg seed, kept at 10° C.
Method: The emergence behavior of sugar beet plants the seeds of which had been treated with pyraclostrobin and which were exposed after sowing to cold temperatures was studied following the guidelines for germination testing according to the Association of Official Seed Analysts (AOSA, 2005). For this purpose, sugar beet seeds were treated with pyraclostrobin (30 g active substance per 100 kg seed). The treatment was effected by means of a HEGE 11 seed treatment apparatus. After the treatment, the seeds were sown into pots with a sandy loam soil/sand mixture (2:1 v/v; 2 seeds per pot). The pots were placed in an incubator and kept at 10° C. 13, 15, 16, 17 and 20 days after sowing (=DAP=days after planting), the number of seeds which had given rise to plants was counted. The results are compiled as mean values in table 4. A value of 100% means that all sown seeds have given rise to plants.

SMILES: CO/C=C(/C(=O)OC)c1ccccc1Oc1cc(Oc2ccccc2C#N)ncn1 [azoxystrobin]
- Dead plants (cotton plants; seed treatment 19 g a.s./100 kg seed): 24%
- Dead plants (corn plants [1]): 31%

SMILES: COC(=O)N(OC)c1ccccc1COc1ccn(-c2ccc(Cl)cc2)n1 [pyraclostrobin]
- Dead plants (spring wheat plants): 18%
- Dead plants (sugar beet plants [2]; 3 h at −5° C. in BBCH growth stage 10, counted three days after freeze exposure): 12%
- Dead plants (sugar beet plants [2]; 3 h at −5° C. in BBCH growth stage 11, counted three days after freeze exposure): 17%
- Dead plants (soybean plants): 18%
- Dead plants (cotton plants; seed treatment 20 g a.s./100 kg seed): 17%
- Emergence (corn plants [3]; 9 DAP): 81%
- Emergence (corn plants [3]; 10 DAP): 97%
- Emergence (corn plants [3]; 29 DAP): 100%
- No. of plants emerged (corn plants [4]; 47 DAP): 19
- Plant height (corn plants [4]; 47 DAP): 1.25 inches
- Dead tissue (corn plants [4]; 50 DAP): 63%
- Root length (corn plants [5]): 13.3 cm
- Stem length (corn plants [5]): 11.2 cm
- Dead plants (corn plants [6]): 29%
- Plants with injury (corn plants [6]): 35%
- Plants with no injury (corn plants [6]): 34%
- Dead plants (corn plants [1]): 36%
- Dead plants (canola plants): 40%
- Emergence (sugar beet plants [7]; 13 DAP): 23%
- Emergence (sugar beet plants [7]; 15 DAP): 45%
- Emergence (sugar beet plants [7]; 16 DAP): 57%
- Emergence (sugar beet plants [7]; 17 DAP): 73%
- Emergence (sugar beet plants [7]; 20 DAP): 90%

SMILES: CON=C(C(=O)OC)c1ccccc1CON=C(C)c1cccc(C(F)(F)F)c1 [trifloxystrobin]
- Dead plants (canola plants): 42%
